Key:
[1] = system: effets β1 (augmentation de la force contractile du myocarde) de l'isoprénaline; experiment: β-blocking activity: inhibition of the β1 effects of intravenous isoprenaline in anaesthetised dogs; assay type: in vivo, chiens; conditions: dog; for inhibition at 0.001 mg/kg / inhibition at 0.01 mg/kg / inhibition at 0.1 mg/kg / inhibition at 0.003 mg/kg: Canis lupus familiaris, iv, inhibition given with negative sign, read-out: % d'inhibition des effets β1^(+) de l'Isoprénaline; for inhibition at 0.001 mg/kg: 0,001 mg/kg I.V.; for inhibition at 0.01 mg/kg: 0,010 mg/kg I.V.; for inhibition at 0.1 mg/kg: 0,100 mg/kg I.V.; for inhibition at 0.003 mg/kg: 0,003 mg/kg I.V.
Protocol: (§1) Des chiens tout-venants mâles ou femelles sont anesthésiés au mébubarbital sodique (30 mg/kg I.V.) et ventilés artificiellement par une pompe Pesty RPP. Ils sont supplémentés en oxygène.
(§2) On mesure: • - la pression carotidienne systolique et diastolique • - la force contractile du myocarde.
(§3) Les signaux sont amplifiés et enregistrés sur Dynograph Beckman.
(§4) L'activité β bloquante adrénergique a été étudiée vis-à-vis des effets β1 (augmentation de la force contractile du myocarde) et des effets P2 (diminution de la pression artérielle disstolique) de l'isoprénaline administrée par voie intraveineuse.
(§5) On calcule le pourcentsge d'inhibition des effets β1 et des effets β2 de l'isoprénaline en fonction des doses (mg.kg I.V.) des différents exemples.
(§6) Les exemples sont injectés dans le veine saphène aux doses (exprimées en base) de: 0,0003 0,001 0,003 0,01 0,1 1,0 et 4,0 ou 8,0 mg.kg-1.

[2] = system: effets β2 (diminution de la pression artérielle diastolique) de l'isoprénaline; experiment: β-blocking activity: inhibition of the β2 effects of intravenous isoprenaline in anaesthetised dogs; assay type: in vivo, chiens; conditions: dog; for inhibition at 0.001 mg/kg / inhibition at 0.01 mg/kg / inhibition at 0.1 mg/kg / inhibition at 0.003 mg/kg: Canis lupus familiaris, iv, inhibition given with negative sign, read-out: % d'inhibition des effets β2^⊕ de l'Isoprénaline; for inhibition at 0.001 mg/kg: 0,001 mg/kg I.V.; for inhibition at 0.01 mg/kg: 0,010 mg/kg I.V.; for inhibition at 0.1 mg/kg: 0,100 mg/kg I.V.; for inhibition at 0.003 mg/kg: 0,003 mg/kg I.V.
Protocol: as §1, §2, §3, §4, §5, §6

[3] = system: rat génétiquement hypertendu: Rat OKAMOTO; experiment: Antihypertensive activity in spontaneously hypertensive rats (tail-cuff systolic pressure and heart rate after oral dosing); assay type: in vivo
Protocol: Des rats mâles âgés de 13 à 21 semaines présentant une hypertension spontanée génétiquement transmissible (souche OKAMOTO provenance IFFA CREDO) sont placés dans une enceinte thermostatée à 38°C. Les rats sont laissés en situation libre. La pression artérielle est mesurée par un sphygmomanomètre Narco Biosystem. Un manchon est placé à la base de la queue et un détecteur enregistre le pouls en aval du manchon. Celui-ci est gonflé jusqu'à suppression du pouls il est ensuite progressivement dégonflé. La pression mesurée à la reprise des battements cardiaques est la pression artérielle systolique. On calcule la fréquence cardiaque à partir de l'enregistrement du pouls artériel. Les produits à étudiar sont mis en suspension el administrés par voie orale sous un volume de 1 ml pour 100 g de poids corporel. Les mesures sont répétées à intervalles réguliers.
Les valeurs moyennes avant traitement pour les différents lots de rats sont pour la pression artérielle systolique de 190 à 200 mmHg et pour la fréquence cardiaque de 305 à 350 battements par minute.
Le tableau III ci-après donne la moyenne des variations de la pression systolique (mmHg) de la fréquence cardisque (battements/minute) et les écarts type à la moyenne obtenus 1 heure 3 heures et 5 heures après administration orale.

[4] = 0.01 mg.kg^-1 voie intraveineuse
[5] = 0.1 mg.kg^-1 voie intraveineuse
[6] = 1.0 mg.kg^-1 voie intraveineuse
[7] = 8.0 mg.kg^-1 voie intraveineuse

Structure (SMILES) | inhibition at 0.001 mg/kg [1] [%] | inhibition at 0.01 mg/kg [1] [%] | inhibition at 0.1 mg/kg [1] [%] | inhibition at 0.001 mg/kg [2] [%] | inhibition at 0.01 mg/kg [2] [%] | inhibition at 0.1 mg/kg [2] [%] | inhibition at 0.003 mg/kg [1] [%] | inhibition at 0.003 mg/kg [2] [%] | Fréquence cardiaque Δ (battements/min) T+1 heure m (sm) ([3]; 64 mg.kg^-1 V.O) | Pression systolique Δ (mmHg) T+1 heure m (sm) ([3]; 64 mg.kg^-1 V.O) | Fréquence cardiaque Δ (battements/min) T+3 heures m (sm) ([3]; 64 mg.kg^-1 V.O) | Pression systolique Δ (mmHg) T+3 heures m (sm) ([3]; 64 mg.kg^-1 V.O) | Fréquence cardiaque Δ (battements/min) T+5 heures m (sm) ([3]; 64 mg.kg^-1 V.O) | Pression systolique Δ (mmHg) T+5 heures m (sm) ([3]; 64 mg.kg^-1 V.O) | other results
CC(C)NCC(O)COc1ccc(NC(=O)Cc2ccsc2)cc1C#N (centres unmarked) [exemple 10, 1-[2-cyano 4-(3-thiénylacétamido)phénoxy] 3-isopropylamino 2-propanol] | -22 | -47 | -91 | -21 | -33 | -39 |  |  |  |  |  |  |  |  | Fréquence cardiaque Δ (battements/min) T+1 heure m (sm) ([3]; 128 mg.kg^-1 V.O): +25 (15) battements/min; Pression systolique Δ (mmHg) T+1 heure m (sm) ([3]; 128 mg.kg^-1 V.O): -13 (12) mmHg; Fréquence cardiaque Δ (battements/min) T+3 heures m (sm) ([3]; 128 mg.kg^-1 V.O): +28 (7) battements/min; Pression systolique Δ (mmHg) T+3 heures m (sm) ([3]; 128 mg.kg^-1 V.O): -5 (9) mmHg; Fréquence cardiaque Δ (battements/min) T+5 heures m (sm) ([3]; 128 mg.kg^-1 V.O): +25 (7) battements/min; Pression systolique Δ (mmHg) T+5 heures m (sm) ([3]; 128 mg.kg^-1 V.O): -26 (8) mmHg
CC(C)NCC(O)COc1ccc(NC(=O)Cc2ccsc2)cc1Br (centres unmarked) [exemple 42, 1-[2-bromo 4-(3-thiénylacétamido)phénoxy] 3-isopropylamino 2-propanol] | -29 | -70 | -100 | 0 | 0 | 0 | -51 | 0 | +50 (19) battements/min | -43 (8) mmHg | +17 (12) battements/min | -55 (7) mmHg | +33 (12) battements/min | -51 (10) mmHg | 
CC(C)(C)NCC(O)COc1ccc(NC(=O)Cc2ccsc2)cc1C#N (centres unmarked) [exemple 9, 1-[2-cyano 4-(3-thiénylacétamido)phénoxy] 3-terbutylamino 2-propanol] | -22 | -91 | -100 | 0 | -8 | -42 | -74 | 0 | +27 (11) battements/min | -16 (4) mmHg | +13 (13) battements/min | -25 (8) mmHg | +13 (13) battements/min | -38 (6) mmHg | Pourcentages d'inhibition des effets β1 de l'Isoprénaline ([1]; 0.001 mg.kg^-1 voie intraveineuse): 22%; Pourcentages d'inhibition des effets β1 de l'Isoprénaline ([1]; 0.003 mg.kg^-1 voie intraveineuse): 74%; Pourcentages d'inhibition des effets β1 de l'Isoprénaline [1, 4]: 91%; Pourcentages d'inhibition des effets β1 de l'Isoprénaline [1, 5]: 100%; Pourcentages d'inhibition des effets β1 de l'Isoprénaline [1, 6]: 100%; Pourcentages d'inhibition des effets β1 de l'Isoprénaline [1, 7]: 100%; Pourcentages d'inhibition des effets β2 de l'Isoprénaline [2, 4]: 8%; Pourcentages d'inhibition des effets β2 de l'Isoprénaline [2, 5]: 42%; Pourcentages d'inhibition des effets β2 de l'Isoprénaline [2, 6]: 100%; Pourcentages d'inhibition des effets β2 de l'Isoprénaline [2, 7]: 100%
